Source: patent US12133924B2, “Compositions and methods for organ specific delivery of nucleic acids” (The Board of Regents of The University of Texas System, priority 2018, dated 2024)

What was measured:
C57BL/6 mice [1] = assay: In vivo Luc mRNA delivery after IV injection, ex vivo organ luminescence; parameters: species or system mouse; settings: 6 h; for organ of luciferase expression (tissue specific mRNA delivery): IV, 0.1 mg/kg Luc mRNA
Experimental: Next, to test the ability of these mDLNPs to deliver mRNA in vivo, mice were injected with a dose of 0.1 mg/kg of Luc mRNA in each of the formulations. […] Assuming that luciferase expression was detected only in liver, spleen and lung after IV injection, the percentage of luciferase expressed in each organ can be calculated (FIG. 1C). […] However, the greater the DOTAP percentage, the more luminescence is seen in lung tissues, with close to 100% of luminescence seen in the lung when DOTAP percentage is greater than 80% (FIG. 1C).
C57BL/6 mice with weight of 18-20 g, were IV injected by various Luc mRNA formulations at a dose of 0.1 or 0.05 mg/kg. n=2-4 per group. After 6 h, mice were intraperitoneal (IP) injected with D-Luciferin (150 mg/kg) and imaged by an IVIS Lumina system (Perkin Elmer). For biodistribution, C57BL/6 mice were IV injected with Cy5-Luc mRNA formulations at a dose of 0.5 mg/kg. Ex vivo imaging (Cy5 channel) was performed 6 h post injection.

C57BL/6 mice [2] = assay: Biodistribution of Cy5-Luc mRNA formulations; format: in vivo, mouse; settings: IV, 0.5 mg/kg, 6 h
Experimental: To test the organ biodistributions of specific DOTAP formulations in greater depth, PBS or liver targeting NPs (mDLNP), spleen targeting NPs (DOTAP10) and lung targeting NPs (DOTAP50) were injected into C57BL/6 mice (n=2) at a dose of 0.5 mg/kg Cy5-Luc mRNA (dye labeled mRNA to track RNA LNPs). 6 h post injection, major organs were collected and imaged (FIG. 3A). The organ distribution of formulations was changed by the amount of DOTAP, and accumulation in liver gradually moved to lung with increasing DOTAP percentages, but regardless of DOTAP percentage, there are still NPs present in the liver (FIG. 7, FIG. 8). […] Further, considering the similar size distribution and EE between these formulations, zeta-potential and pKa may play roles in tissue targeting mRNA expression.
Mechanistic experiments were conducted to explore how and why inclusion of extra lipids in defined categories controls mRNA delivery to different organs. It is logical that LNPs that deliver to cells within the lungs should biodistribute (accumulate) in the lungs. Cy5-labeled mRNA was delivered to track the in vivo distribution of 5A2-SC8 LNPs containing SORT lipids with lung (DOTAP quaternary amino lipid), spleen (18PA anionic lipid and DSPC zwitterionic lipid) and liver (DODAP ionizable tertiary amino lipid) tropism (FIGS. 27A & 28). […]

Td-Tomato mice = assay: sgRNA screening in Td-Tomato mice; format: in vivo, mouse; settings: mDLNP, Cas9/sgRNA 4/1 wt/wt, total 3 mg/kg IV, day 7
Text: These sgRNAs are sgTom1, sgTom2 and sgLoxP. […] Considering the weak PAM of sgLoxP (NAG), sgTom1 was finally chosen for further experiments.

HeLa-Luc cells = assay: Cellular uptake and uptake mechanism in HeLa-Luc cells; format: cell-based; settings: pre-incubation 1 h, then 24 nM sgLuc, 30 min
Text: First, DOTNPs containing Cas9/sgRNA RNPs that were tagged by a green fluorescent EGFP were tracked by confocal microscopy (FIG. 12A). […] Green: EGFP fused Cas9 protein; Blue: nuclei stained with Hoechst 33342. Red arrows indicated the process of DOTNP10 entering into nucleus. (FIG. 12B)
To evaluate this strategy, 5A2-SC8 was selected as the ionizable cationic lipid because 5A2-SC8 LNPs safely deliver short siRNAs/miRNAs and long mRNAs to mice with compromised liver function, including MYC-driven liver cancer (Zhou et al., 2016; Zhang et al., 2018a; Zhang et al., 2018b) or genetic knockout of fumarylacetoacetate hydrolase (FAH) (Cheng et al., 2018). Introduction of a permanently cationic lipid (e.g. DOTAP) into traditional 4-component 5A2-SC8 LNP formulations indeed allowed controlled self-assembly to occur by mixing an ethanol solution of lipids with a PBS solution of RNPs (1/3, v/v). […] Initially using sgRNA targeting reporter Luciferase (sgLuc), the size of LNPs with 10 mole % DOTAP incorporation (5A2-DOT-10: 5A2-SC8/DOPE/Cho1/DMG-PEG/DOTAP=15/15/30/3/7 (mol/mol)) was observed, prepared using PBS buffer were slightly larger than nanoparticles without RNP loading. […]
To examine the uptake mechanism, assays of specific inhibition on endocytosis pathways were evaluated using Hela-Luc cells. […] The cells were then collected and analyzed by flow cytometry. […]

Compound | organ of luciferase expression (tissue specific mRNA delivery) (C57BL/6 mice [1]) | other results
CCCCCCCCCCC(O)CN(CCN1CCN(CCN(CC(O)CCCCCCCCCC)CC(O)CCCCCCCCCC)CC1)CCN(CC(O)CCCCCCCCCC)CC(O)CCCCCCCCCC (stereo not shown) [C12-200] | enhanced liver delivery without any luciferase expression in the lungs | delivery efficacy compared with original mDLNP formulation (C57BL/6 mice [1]; 0.1 mg/kg, n=2): much better delivery efficacy than original mDLNP formulation
CCCCCCCC/C=C\CCCCCCCC(=O)OC[C@H](COP(=O)(O)O)OC(=O)CCCCCCC/C=C\CCCCCCCC [18PA, 1,2-dioleoyl-sn-glycero-3-phosphate] | exclusively spleen | organ distribution of Cy5-labeled mRNA (C57BL/6 mice [2]): increased uptake into the spleen
CCCCCCCC/C=C\CCCCCCCC(=O)OCC(O)COP(=O)(O)OCC(COC(=O)CCCCCCC/C=C\CCCCCCCC)OC(=O)CCCCCCC/C=C\CCCCCCCC (stereo not shown) [18BMP, sn-(3-oleoyl-2-hydroxy)-glycerol-1-phospho-sn-3′-(1′,2′-dioleoyl)-glycerol] | exclusively spleen | 
CCCCCCCC/C=C\CCCCCCCC(=O)OCC(C[N+](C)(C)CCOP(=O)([O-])OCC)OC(=O)CCCCCCC/C=C\CCCCCCCC (stereo not shown) [DOCPe, 2-((2,3-bis(oleoyloxy)propyl)dimethylammonio)ethyl ethyl phosphate] | move from liver to spleen | 
sgTom1: sgRNA, AAGTAAAACCTCTACAAATG (SEQ ID NO: 1) (chemically modified sgRNA from Synthego, pattern not given here) |  | induction of TdTomato in liver (Td-Tomato mice): more successful at inducing TdTomato than sgTom2
CCCCCCCC/C=C\CCCCCCCC(=O)OCC(CN(C)C)OC(=O)CCCCCCC/C=C\CCCCCCCC (stereo not shown) [DODAP, 1,2-dioleoyl-3-dimethylammonium-propane] | enhanced liver delivery without any luciferase expression in the lungs | mRNA delivery when added to C2 LNPs (no ionizable cationic lipid) (C57BL/6 mice [1]; 0.1 mg/kg, n=2): failed to enable significant mRNA delivery
CCCCCCCCCCCCCC(=O)OCC(COP(=O)(OCC)OCC[N+](C)(C)C)OC(=O)CCCCCCCCCCCCC.Cl (stereo not shown) [EPC, 1,2-dimyristoyl-sn-glycero-3-ethylphosphocholine] | liver to spleen to lung based on SORT lipid percentage | organ of luciferase signal at 40% SORT lipid (C57BL/6 mice [1]; 0.1 mg/kg): high luciferase signal was observed exclusively in the lungs
CCCCCCCC/C=C\CCCCCCCC(=O)OCC(C[N+](C)(C)C)OC(=O)CCCCCCC/C=C\CCCCCCCC (stereo not shown) [DOTAP, 1,2-dioleoyl-3-trimethylammonium-propane] | liver to spleen to lung based on SORT lipid percentage | mRNA delivery when added to C2 LNPs (no ionizable cationic lipid) (C57BL/6 mice [1]; 0.1 mg/kg, n=2): failed to enable significant mRNA delivery; organ distribution of Cy5-labeled mRNA (C57BL/6 mice [2]): progressive increase in lung accumulation
CCCCCCCCCCCCCCCCCC(=O)OC[C@H](COP(=O)([O-])OCC[N+](C)(C)C)OC(=O)CCCCCCCCCCCCCCCCC [DSPC, 1,2-distearoyl-sn-glycero-3-phosphocholine] | move from liver to spleen | 
CCCCCCCCCCCCCC(=O)OC[C@H](COP(=O)(O)O)OC(=O)CCCCCCCCCCCCC [14PA, 1,2-dimyristoyl-sn-glycero-3-phosphate] | exclusively spleen | 
Methyl-o-cyclodextrin [MβCD] |  | effect of endocytosis inhibitor on uptake of 5A2-DOT-10 LNPs (HeLa-Luc cells): significantly inhibited
CCCCCCCCCCCCCCCCCC[N+](C)(C)CCCCCCCCCCCCCCCCCC [DDAB, dimethyldioctadecylammonium] | liver to spleen to lung based on SORT lipid percentage | organ of luciferase signal at 40% SORT lipid (C57BL/6 mice [1]; 0.1 mg/kg): high luciferase signal was observed exclusively in the lungs
